According to PMC8952364, “Polyphenols as Inhibitors of Antibiotic Resistant Bacteria—Mechanisms Underlying Rutin Interference with Bacterial Virulence” (Pharmaceuticals, 2022):
Converted amounts (≈) assume the structure as drawn. Where two headings read alike, the source gives them in different places.

Assays:
P. aeruginosa IBRS P001 [1] = assay: Antimicrobial microdilution assay (MIC/MBC); type: cell-based, Pseudomonas aeruginosa; details: Pseudomonas aeruginosa, IBRSP001; for MIC: read-out: MIC
Summary of the method: (§1)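 Polyphenols 0.0039–1 mg/mL, stocks in 30% ethanol; inoculum 0.5 McFarland diluted twenty-fold, mixed 1:10; 24 h, 37 °C. MIC = no visible growth (binocular microscope). Streptomycin positive control, ethanol negative control; triplicate.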

P. aeruginosa MMA83 = assay: Antimicrobial microdilution assay (MIC/MBC); type: cell-based, Pseudomonas aeruginosa; details: Pseudomonas aeruginosa, MMA83
Summary of the method: as §1

P. aeruginosa IBRS P001 [2] = assay: Bacterial adhesion to HaCaT cells; type: cell-based, Pseudomonas aeruginosa
Description: HaCaT cells were grown until confluence in 24-well plates with an adhesive bottom. The medium was removed and DMEM without FBS containing the rutin (MIC and 0.5 MIC) was added. The samples were incubated at 37 °C for 15 min, and bacteria (P. aeruginosa IBRS P001 and MRSA IBRS MRSA 011) were added. After incubation at 37 °C for 1 h, the cells were washed three times with DMEM without FBS and lyzed with 1 mL of 1% (v/v) Tween-20 (SigmaAldrich, Germany) at 37 °C for 30 min. Afterwards, dilutions of the bacterial suspension in each well were made and seeded on Plate Count Agar plates. The number of CFU was determined after incubation at 37 °C for 18 h, and the percentage of adhered bacterial cells was calculated following the equation:% (adhesion relative to the control) = 100 × CFU (treated)/CFU (control)
With CFU (treated) representing the number of CFUs after the treatment of cells with rutin and CFU (control) representing the number of bacterial CFUs in the untreated sample. The solvent treated sample was used as the control.

[3] = system: P. aeruginosa IBRS P001 biofilm; assay: Congo red binding assay, exopolysaccharide production (biofilm formation); type: cell-based, Pseudomonas aeruginosa
Description: The estimation of rutin’s impact on biofilm exopolysaccharide production (EPS) was determined by the Congo red binding assay. P. aeruginosa IBRS P001 biofilm EPS production was determined as previously described. […] The planktonic cells were removed, and the adherent cells were washed with PBS. Wells were stained with 1% (w/v) Congo red (SigmaAldrich, Germany) in the dark for 30 min. Wells were aspirated and subsequently the bound dye was solubilized with 200 μL DMSO. Absorbance at 490 nm was measured in a microtiter plate reader Multiskan™ FC microplate photometer (Thermo Scientific™, United States) and the inhibition percentage of EPS production was calculated according to the following equation:%Inhibition = [(A490control − A490sample)/A490control] × 100
With A490control representing the absorbance of the untreated biofilm and A490sample the absorbance of the rutin treated sample. The solvent treated sample was used as the control.

[4] = system: 24 h old P. aeruginosa IBRS P001 biofilms; assay: Biofilm eradication, crystal violet assay (biofilm mass); type: cell-based, Pseudomonas aeruginosa; details: 4 MBC—4 mg/mL, 24 h treatment
Description: After incubation, each well was washed twice with sterile PBS (phosphate-buffered saline, pH 7.4) and fixed with methanol for 10 min. After removal of methanol the plate was air-dried. The biofilm was stained with 0.1% crystal violet (Bio-Merieux, Marcy l’Etoile, France) for 30 min. The plate was washed with water, air dried, and the stain was dissolved with 200 μL of 96% ethanol (Zorka, Sabac, Serbia). The absorbance was read at 620 nm on a Multiskan™ FC microplate photometer (Thermo Scientific™, Waltham, MA, USA). The results are presented as biofilm forming capacity (%) compared to control.
The bacterial cells were incubated in TSB enriched with 2% glucose in 96-well plates (Sarstedt, Germany) with adhesive bottom at 37 °C for 24 h. After incubation, wells were washed with PBS, and rutin (MBC–4 MBC) in TSB with 2% glucose was added. Incubation continued at 37 °C for another 24 h. The planktonic cells were removed.
The assays continued as described above for the crystal violet antibiofilm assay for the measurement of biofilm mass, biofilm MTT assay for the interference with cell viability, Congo red binding assay for estimation of exopolysaccharide production, and eDNA assay.

[5] = system: P. aeruginosa IBRS P001 elastase production; assay: Elastase assay (Elastin-Congo red); type: cell-based, Pseudomonas aeruginosa; details: 0.25 mg/mL (0.5 MIC), compared to the control
Description: After 48 h of incubation (37 °C, 180 rpm), the mixtures were collected and centrifuged at 15,700× g for 15 min. Quantification of the elastase activity was measured at 495 nm using a Plate Reader Infinite 200 pro (MTX Lab Systems, Vienna, VA, USA). An untreated culture supernatant was used as a positive control (supplemented with the solvent). The experiment was done in triplicate.

P. aeruginosa IBRS P001 [6] = assay: Membrane permeability assay (nucleotide and protein leakage); type: cell-based, Pseudomonas aeruginosa; details: rutin MIC; absorbance of released nucleic acids (260 nm) and proteins (280 nm) increased after 60 min
Description: The effect of rutin on membrane permeability (nucleotide and protein leakage) was evaluated as described earlier with some modifications. The culture of P. aeruginosa IBRS P001 and MRSA IBRS MRSA 011 was incubated overnight at 37 °C, washed, and suspended in 10 mM PBS in order to achieve the final density of 10^8 CFU/mL. Bacteria were incubated with rutin at a concentration equal to MIC for time intervals 0, 30, 60, and 90 min. Bacteria incubated with PBS were used as control. After incubation the mixture was filtered through a 0.22 μm pore size filter to remove […]. The optical density of the filtrate was measured at 260 and 280 nm with an Agilent/HP 8453 UV-Visible Spectrophotometer (Agilent Technologies, Santa Clara, CA, USA) at room temperature (25 °C).

[7] = system: multiple drug resistant P. aeruginosa; design: method as in doi:10.1016/j.foodcont.2018.02.044; details: cited from earlier work
[8] = subcultivation, 24 h at 37 °C, read-out: MBC

Question: For `C[C@@H]1O[C@@H](OC[C@H]2O[C@@H](Oc3c(-c4ccc(O)c(O)c4)oc4cc(O)cc(O)c4c3=O)[C@H](O)[C@@H](O)[C@@H]2O)[C@H](O)[C@H](O)[C@H]1O` [Rutin, rutin], which MIC (P. aeruginosa IBRS P001 [1]; 37 °C, 24 h) is on record?
Answer: Its MIC is 500 µg/mL (≈ 819 µM).

Question: What about the MIC (P. aeruginosa IBRS P001 [1]; restated in the discussion) of the same compound?
Answer: The MIC was 500 µg/mL (≈ 819 µM).

Question: And the MBC (P. aeruginosa IBRS P001 [1]; [8])?
Answer: The MBC was 1000 µg/mL (≈ 1640 µM).

Question: And the MIC (P. aeruginosa MMA83; 37 °C, 24 h, read-out: MIC)?
Answer: Its MIC is 500 µg/mL (≈ 819 µM).

Question: What about the MBC (P. aeruginosa MMA83; [8]) of the same compound?
Answer: Its MBC is 500 µg/mL (≈ 819 µM).

Question: And the “reduction of CFU adhered to human keratinocytes” value (P. aeruginosa IBRS P001 [2]; 0.5 MIC, 0.25 mg/mL)?
Answer: The value was 25%.

Question: And the “reduction of CFU adhered to human keratinocytes” value (P. aeruginosa IBRS P001 [2]; rutin MIC)?
Answer: Its value is 51%.

Question: What about the “exopolysaccharide level, % of production compared to vehicle treated control” value (from here on “exopolysaccharide level, % of production”) ([3]; 0.25 MIC) of the same compound?
Answer: The value was 72%.

Question: What about the “exopolysaccharide level, % of production” value ([3]; 0.5 MIC) of the same compound?
Answer: Its value is 56%.

Question: What about the “exopolysaccharide level, % of production” value ([3]; MIC) of the same compound?
Answer: Its value is 50%.

Question: What about the inhibition at 250 µg/mL ([3]; Pseudomonas aeruginosa, IBRSP001BIOFILM, read-out: inhibition of produced exopolysaccharides) of the same compound?
Answer: Its inhibition at 250 µg/mL is 44%.

Question: And the “inhibition of pre-formed biofilm biomass” value [4]?
Answer: Its value is 35%.

Question: What about the “reduction of elastase production” value [5] of the same compound?
Answer: Its value is 91%.

Question: And the “cell membrane integrity, in words” value (P. aeruginosa IBRS P001 [6])?
Answer: Its value is “obstructed P. aeruginosa IBRS P001 cell membrane integrity”.

Question: What about the MIC [7] of the same compound?
Answer: Its MIC is 800 µg/mL (≈ 1310 µM).
